Tests used:
[1] = On-set pH of crystallization of aqueous 2,4-D potassium solution with added crystal inhibitor (CI), pH lowered with 0.2 N sulfuric acid; format: physicochemical; settings: 3% ae 2,4-D K salt in water; CI 0.2 wt %
[2] = Spray solution compatibility (crystal formation) of 2,4-D and glyphosate salts with 2% AMS and added crystal inhibitor; format: physicochemical; settings: 2% AMS, 342 ppm hardness water, 24 h room temperature
Description: Spray solutions were formed from aqueous concentrates of 2,4-D choline (prepared by mixing equimolar amounts of 2,4-D acid and choline hydroxide in water) or 2,4-D DMA and various glyphosate salts (potassium, isopropyl ammonium or dimethyl ammonium) at various concentrations (weight percent acid equivalent basis) of the respective active ingredients with and without added polyethylenimine or polyvinylamine crystal inhibitor (CI).

NCCNCCNCCNCCN [TEPA, tetraethylenepentamine]
On-set pH of Crystallization [1]: 5.68 | Result (crystals observed 24 hours after preparation of tank mixture) ([2]; 2,4-D choline 1.8 wt % ae + WeatherMax 1.8 wt % ae, CI 0.2%): 1 | Result (crystals observed 24 hours after preparation of tank mixture) ([2]; 2,4-D choline 1.8 wt % ae + WeatherMax 1.8 wt % ae, CI 0.4%): 0 | Result (crystals observed 24 hours after preparation of tank mixture) ([2]; 2,4-D choline 1.8 wt % ae + WeatherMax (glyphosate potassium) 1.8 wt % ae, CI 0.1%): 3

Reference: patent US20120053056A1, “COMPOSITIONS AND METHODS FOR IMPROVING THE COMPATIBILITY OF WATER SOLUBLE HERBICIDE SALTS” (DOW AGROSCIENCES LLC, priority 2010, published 2012)
